These results are taken from US20210177808A1, “INJECTABLE ISOXAZOLINE PHARMACEUTICAL COMPOSITIONS AND THEIR USE AGAINST PARASITE INFESTATION” (Intervet Inc., priority 2017, published 2021).

This assay concerns Ctenocephalides felis fleas. In words: Flea efficacy on dogs approximately 6 months after treatment (Example 4B). The class given is in vivo. How it is done: The results from additional dose characterization studies are summarized. These studies evaluated three doses (10, 15 and 20 mg/kg) in adult dogs. The injectable suspension formulations of fluralaner were prepared is indicated in Example 1J above. One study tested the effectiveness against Rhipicephalus sanguineus ticks (see Table 7). A second study evaluated efficacy against fleas at approximately 6 months after treatment was tested in dogs (see Table 8).

With `Cc1cc(C2=NOC(c3cc(Cl)cc(Cl)c3)(C(F)(F)F)C2)ccc1C(=O)NCC(=O)NCC(F)(F)F` (centres unmarked) [fluralaner, 4-[5-(3,5-Dichlorophenyl)-5-trifluoromethyl-4,5-dihydroisoxazol-3-yl]-2-methyl-N-[(2,2,2-trifluoro-ethylcarbamoyl)-methyl]-benzamide], the “Effectiveness in reducing live fleas on dogs” value (all three doses (10, 15, 20 mg/kg), 6 months following treatment) is listed as 100%. Also, the “Predicted duration of efficacy against fleas” value (predicted because fleas are more sensitive to fluralaner than ticks) was 12 months.
